Results as given in article PMC8389655, “Au2phen and Auoxo6, Two Dinuclear Oxo-Bridged Gold(III) Compounds, Induce Apoptotic Signaling in Human Ovarian A2780 Cancer Cells” (Biomedicines, 2021).

Columns and labels:
[1] = system: mitochondrial membrane potential (Δψm) in A2780 cells; test: Mitochondrial membrane potential (TMRM, flow cytometry); type: cell-based, human; conditions: A2780, 48 h exposure at 72 h IC50 dose, compared to controls
Procedure: The mitochondrial membrane potential (Δψm) was measured using tetramethylrhodamine methyl ester perchlorate (TMRM), a lipophilic potentiometric fluorescent dye that distributes between the mitochondria and cytosol in proportion to Δψm by virtue of its positive charge. The amount of accumulated dye in the mitochondria, and consequently the signal intensity, is a direct function of mitochondrial potential. […] Cells were then trypsinized, washed with PBS, and incubated with 100 nM TMRM for 20 min in the dark at 37 °C. After labelling, cells were washed again, suspended in PBS, and analyzed using a FACSCantoII flow cytometer (BD Biosciences, New Jersey, USA).

ASK1 = test: Western blot of phospho(Thr838)-ASK1 and total ASK1; type: cell-based, human; conditions: A2780, 24 h at 72 h IC50 dose, vs controls
Procedure: (§1) After drug treatments, cells were lysed in RIPA buffer supplemented with a cocktail of protease and phosphatase inhibitors. […] To favor the electrophoretic separation, 25% sample loading buffer (SLB) was added to the cell lysates. Here, 20 µg samples of proteins from controls and treated cells were loaded on 4–20% pre-cast SDS-PAGE gels and blotted onto PVDF membranes. Primary antibodies Bcl-2 (1:1000 dilution,#sc-7382, Santa Cruz, Dallas, Texas USA), Bax (1:1000 dilution, #sc-493, Santa Cruz), OXPHOS cocktail (1:1000 dilution, #ab110413, AbCam, Cambridge, UK), citrate synthase (1:1000 dilution, #sc-515640, Santa Cruz), ASK1 (1:1000 dilution, #sc-390275, Santa Cruz), phospho(Thr838)-ASK1 (1:1000 dilution, #CPA6042, Cohesion Biosciences, London, UK), AKT (1:1000 dilution, #sc-5298, Santa Cruz), and phospho(Ser473)-AKT (1:1000 dilution, #GTX128414, GeneTex, Irvine, CA, USA) were added to 2% non-fat dry milk in PBS-tween solution, while PVDF membranes were incubated overnight at 4 °C. Then, membranes were treated with horseradish peroxidase (HRP)-conjugated secondary antibodies (1:5000 dilution, Santa Cruz) and immunoreactive bands were detected with an ECL kit detection system on an Amersham Imager 600 (GE Healthcare, Chicago, IL, USA). For the quantification, a densitometric analysis of the bands was performed using ImageJ2 software version 2.0.0-rc-64 [23]. The intensities of the immunostained bands were normalized on the Coomassie brilliant blue R-250-stained total protein from the same PVDF membrane.

caspase-3 = test: FAM-FLICA caspase-3 activation, flow cytometry; type: cell-based, human; conditions: A2780, 72 h at 72 h IC50 dose, compared to controls
Procedure: In addition, caspase-3, caspase-8, and caspase-9 activation was assessed in treated and untreated cells. Likewise, cells were trypsinized, washed with PBS, and suspended in FAM-FLICATM caspase solution (FAM-DEVD-FMK caspase FLICA kit, ImmunoChemistry Technologies, MN 55431 USA) for 30 min at 37 °C. Cells were then washed twice with PBS and analyzed using a FACSCantoII flow cytometer (BD Biosciences, New Jersey, USA).

[2] = system: complex II-driven mitochondrial respiration; test: Respiratory control ratio, complex II-driven respiration in permeabilized cells; type: cell-based, human; conditions: permeabilized A2780, 24 h treatment; control about 3.0
Procedure: The analysis of the oxygen consumption rate (OCR) was performed using a Clark-type O2 electrode inserted in a thermostated airtight chamber (Oxygraph Plus System, Hansatech Instruments, King’s Lynn, Norfolk, UK). Briefly, control and treated cells (12 and 24 h) were trypsinized, washed with PBS, and suspended in culture medium to measure the steady state OCR for 10 min. The OCR values, expressed as nmol of consumed O2/mL/min, were normalized to the cellular protein content. To evaluate the response of complex I, complex II/III, and ATP-synthase-driven OCRs in the presence or absence of gold-treatment, we used the protocol described by Baracca et al.. Cells were trypsinized, washed, and resuspended in buffer containing sucrose, TRIS-HCl, MgSO4, EDTA, and KH2PO4. Cell suspension was treated with digitonin to allow cell membrane permeabilization. To stimulate complex I, 250 mM glutamate/malate was added, whereas to stimulate complex II, 250 mM succinate was added (state 2 respiration). Then, to induce ATP-synthase-driven mitochondrial respiration, 10 mM ADP was added (state 3 respiration). To estimate the mitochondrial respiratory capacity, defined as the respiratory control ratio (RCR), state 3/state 2 ratios were calculated for control and treated cells.

OXPHOS complex II = test: Western blot of OXPHOS complex II content; type: cell-based, human; conditions: A2780, 24 h at 72 h IC50 dose, vs controls
Procedure: as §1

[3] = system: A2780 human ovarian cancer cell line; test: MTT antiproliferative assay on A2780 cells; type: cell-based; conditions: for IC50: 72 h of treatment, MTT assay, mean ± SD of three experiments, read-out: Half-maximal inhibitory concentration (IC50), A2780; for cytotoxic potency on A2780 higher than that of AuL12 (fold): from 72 h IC50 values on A2780
Procedure: (§2) The inhibition of cell proliferation by Au2phen, Auoxo6, and AuL12 on A2780 cell line was evaluated through MTT (3-(4,5-dimethylthiazol-2-yl)-2,5-diphenyltetrazolium bromide) test. Viable cells can convert MTT into formazan, which is coloured and detectable at 595 nm. Exponentially growing cells were seeded in 96 well-microplates at a density of 8 × 10^3 for 24 h and then gold compounds were added in fresh RPMI medium at concentrations ranging from 0.003 to 100 µM and incubated for 72 h. On the day of the test, cells were treated with 0.5 mg/mL MTT for 1 h at 37 °C. Following precipitation, blue formazan was dissolved in DMSO, and the optical density was read in a microplate reader interfaced with Microplate Manager/PV version 4.0 software (BioRad Laboratories, Hercules, USA). From the absorbance measurements, the half-maximal inhibitory concentration (IC50) value of each compound on A2780 cells was calculated using GraphPad Prism software version 6.0 (Graphpad Holdings, LLC, USA). The same protocol was applied on non-tumor cell lines, i.e., HEK and PNT1 cells.
The effects of these 72 h exposure IC50 doses on A2780 cell viability were also evaluated using an MTT time course assay at 12, 24, 48, and 72 h of drug exposure. The experimental protocol described above was applied.

AKT = test: Western blot of phospho(Ser473)-AKT and total AKT; type: cell-based, human; conditions: A2780, 24 h at 72 h IC50 dose, vs controls
Procedure: as §1

[4] = system: HEK293 (human embryonic kidney) cells; test: MTT antiproliferative assay on HEK cells; type: cell-based; conditions: for IC50: 72 h of treatment, MTT assay, mean ± SD of three experiments, read-out: Half-maximal inhibitory concentration (IC50), HEK293; for IC50 for HEK higher than for A2780 (fold): ratio of 72 h IC50 HEK / A2780
Procedure: as §2

Row | Structure (SMILES) | cells bearing lower Δψm (low TMRM fluorescence) [1] | enhancement of phospho-ASK1 levels (phosphorylated-ASK1/total ASK1 ratio) (ASK1) | caspase-3 activation (fluorescence intensity) (caspase-3) | respiratory control ratio (RCR), complex II-driven [2] | decrease of complex II protein content (OXPHOS complex II) | IC50 [3] | cytotoxic potency on A2780 higher than that of AuL12 (fold) [3] | reduction of phospho-AKT levels (phosphorylated-AKT/total AKT ratio) (AKT) | IC50 [4] | IC50 for HEK higher than for A2780 (fold) [4]
1 | Cc1ccc2ccc3ccc(C)[n+]4c3c2[n+]1[Au-]41[O][Au-]2([O]1)[n+]1c(C)ccc3ccc4ccc(C)[n+]2c4c31.F[P-](F)(F)(F)(F)F.F[P-](F)(F)(F)(F)F [Au2phen, ((2,9-dimethyl-1,10-phenanthroline)2Au2(µ-O)2)(PF6)2] | about 26% | about 15% | ~ 40% | about 1.7 | 66% | 0.8 ± 0.02 µM | 5 fold | about 12% | 4.18 ± 0.05 µM | 5 fold
2 | CCOC(=O)CN(C)C1=[S+][Au-]([Br])([Br])[S]1 [AuL12, dibromo(ethylsarcosinedithiocarbamate)gold(III), reference compound] | ~36% | about 25% | ~ 40% | about 2.4 | 40% | 4 ± 0.03 µM |  | ~17% | 10.7 ± 0.36 µM | 2.7 fold
3 | Cc1cccc2[n+]1[Au-]1([O][Au-]3([O]1)[n+]1c(C)cccc1-c1cccc(C)[n+]13)[n+]1c(C)cccc1-2.F[P-](F)(F)(F)(F)F.F[P-](F)(F)(F)(F)F [Auoxo6, ((6,6′-dimethyl-2,2′-bipyridine)2Au2(µ-O)2)(PF6)2] | 17% | about 23% | about 80% | about 1.8 | 70% | 1.14 ± 0.18 µM | 3.5 fold | ~19% | 6.16 ± 0.04 µM | 5 fold
